“Also recorded” adds a separate entry of the source. Like-named read-outs stand apart in the source and are kept apart here.
Columns and labels:
[1] = test system: TMZ resistant cells (U251TR); experiment: MTT cytotoxicity assay, U251TR
Procedure: (§1) MTT cytotoxicity assays were carried out after cells were treated with the TMZ-POH conjugate. The MTT cytotoxicity assays were carried out as described in Chen TC, et al. Green tea epigallocatechin gallate enhances therapeutic efficacy of temozolomide in orthotopic mouse glioblastoma models. Cancer Lett. 2011 Mar. 28; 302(2):100-8.

[2] = test system: MyLa cells; experiment: Cell proliferation by Trypan blue exclusion counting, MyLa; assay type: cell-based, human; conditions: 1 μM
Source text: (§2) 2. Material and methods 2.1. […] 2.2. […] 2.3. […] 2.4. […] 2.5.

[3] = test system: MyLa cells; experiment: MTT cell viability assay, MyLa (Example 15); assay type: cell-based, human
Source text: as §2

[4] = test system: TMZ resistant (U251TR) U251 cells; experiment: Colony forming assay, TMZ resistant U251TR; assay type: cell-based, human
Procedure: (§3) Colony forming assays were carried out after cells were treated with TMZ alone, POH alone, and the TMZ-POH conjugate. […] Cancer Lett. 2011 Mar. 28; 302(2):100-8.

[5] = test system: CHOP, c-myc and cyclin D in HUT78, HUT102 and MyLa cells; experiment: Western blot of ER stress and proliferation markers; assay type: cell-based, human; conditions: for lowest concentration triggering near-maximal CHOP induction: 72 hours
Source text: as §2

[6] = test system: tumor brain endothelial cells (TuBEC); experiment: MTT cytotoxicity assay, tumor brain endothelial cells; assay type: cell-based
Source text: (§4) Cancer Lett. 2011 Mar. 28; 302(2):100-8.

[7] = Toxicity studies in mice; assay type: in vivo
Source text: (§5) Compared to both of its individual components, TMZ and POH, NEO212 exerts substantially greater cytotoxic activity, potentially via involvement of the pro-apoptotic module of the ER stress response mechanism, although its alkylating activity might contribute as well. As a next step in NEO212's development, in vivo experiments in immunodeficient murine CTCL models should be performed. We have attempted such models, but tumor take with our CTCL cell lines was unacceptably low, not inconsistent with reported challenges of achieving consistent tumor growth with these and other CTCL cell lines in general^57-59 It is conceivable that serial passage of positive tumors in mice would yield more aggressive cells, and we are considering pursuing this approach.

[8] = test system: brain endothelial cells (BEC; confluent and subconfluent); experiment: MTT cytotoxicity assay, brain endothelial cells; assay type: cell-based
Source text: as §4

[9] = test system: cleaved PARP and cleaved caspases 3 and 4 in HUT78, HUT102 and MyLa cells; experiment: Western blot of apoptosis markers (cleaved PARP-1, cleaved caspases); assay type: cell-based, human
Source text: as §2

[10] = test system: ER stress (CHOP) in TMZ sensitive and resistant U251 glioma cells; experiment: Western blot of ER stress (CHOP) in U251 glioma cells; assay type: cell-based, human; conditions: 18 hr treatment
Procedure: TMZ sensitive and resistant glioma cells Western blots were performed after TMZ sensitive and resistant glioma cells were treated with the TMZ-POH conjugate for 18 hr. […] Activation of the proapoptic protein CHOP was shown at concentrations as low as 60 uM of TMZ-POH.

[11] = test system: TMZ sensitive (U251) cells; experiment: Colony forming assay, TMZ sensitive U251; assay type: cell-based, human
Procedure: as §3

[12] = test system: HUT78 cells; experiment: Cell proliferation by Trypan blue exclusion counting, HUT78; assay type: cell-based, human; conditions: HUT78, 1 μM
Source text: as §2

[13] = test system: HUT102 cells; experiment: MTT cell viability assay, HUT102 (Example 15); assay type: cell-based, human
Source text: as §2

[14] = test system: TMZ sensitive cells (U251); experiment: MTT cytotoxicity assay, U251
Procedure: as §1

[15] = Toxicity studies in Beagle dogs; assay type: in vivo; conditions: Beagle dogs (unpublished)
Source text: as §5

[16] = test system: HuT 78 cells; experiment: MTT assay on HuT 78 cells (Example 14); conditions: HuT 78, 72 hours
Procedure: HuT 78 cells are cutaneous T lymphocytes derived from a patient with Sézary syndrome.
HuT 78 cells were treated in vitro with (i) temozolomide (50, 100, 250 μM), (ii) POH-TMZ conjugate (“NEO212”, 25, 50, 100 μM), (iii) NEO412 which is the triple conjugate of temozolomide (TMZ), perillyl alcohol (POH), and linoleic acid (25, 50, 100, 250 μM), or (iv) vehicle alone. Seventy-two hours after the addition of drugs or vehicle, cell viability was determined by standard MTT (methylthiazoletetrazolium) assay.

[17] = test system: U87, A172 and U251 human glioma cells; experiment: MTT cytotoxicity assay on human malignant glioma cells; assay type: cell-based
Source text: In vitro efficacy of the present composition can be determined using methods well known in the art. For example, the cytotoxicity of the present monoterpene (or sesquiterpene) and/or the therapeutic agents may be studied by MTT [3-(4,5-dimethylthiazol-2-yl)-2,5-diphenyl tetrazolium bromide] cytotoxicity assay. MTT assay is based on the principle of uptake of MTT, a tetrazolium salt, by metabolically active cells where it is metabolized into a blue colored formazon product, which can be read spectrometrically. J. of Immunological Methods 65: 55 63, 1983. The cytotoxicity of the present monoterpene (or sesquiterpene) derivative and/or the therapeutic agents may be studied by colony formation assay. Functional assays for inhibition of VEGF secretion and IL-8 secretion may be performed via ELISA. Cell cycle block by the present monoterpene (or sesquiterpene) derivative and/or the therapeutic agents may be studied by standard propidium iodide (PI) staining and flow cytometry. Invasion inhibition may be studied by Boyden chambers. In this assay a layer of reconstituted basement membrane, Matrigel, is coated onto chemotaxis filters and acts as a barrier to the migration of cells in the Boyden chambers. Only cells with invasive capacity can cross the Matrigel barrier. Other assays include, but are not limited to cell viability assays, apoptosis assays, and morphological assays.
Then U87, A172 and U251 cells were treated with dimethyl celecoxib bisPOH carbamate (POH-DMC) (e.g., synthesized by the method in Example 1), and the MTT cytotoxicity assays performed (FIG. 2).
Then TMZ-resistant glioma cell lines U87, A172 and U251 cells were treated with temozolomide POH carbamate (POH-TMZ) (e.g., synthesized by the method in Example 3).

[18] = test system: HUT78 cells; experiment: MTT cell viability assay, HUT78 (Example 15)
Procedure: Pharmacological agents—NEO212 was dissolved in DMSO at 100 mM. TMZ was purchased from Sigma Aldrich (St. Louis, Mo.) and dissolved in DMSO (Santa Cruz Biotechnology, Dallas, Tex.) to a concentration of 50 mM. POH was purchased from Sigma-Aldrich and diluted in DMSO to 100 mM. […] Stock solutions of all drugs were stored at −20° C. Staurosporine (STSP) was purchased from Selleck Chemicals (Houston, Tex.), stored at 4° C. protected from light, and dissolved in DMSO before use. Ascorbic acid (AA) and beta-mercaptoethanol (b-ME) (Sigma Aldrich) were prepared fresh before use. Crystalline AA was dissolved in phosphate-buffered saline (PBS) to 25 mM; b-ME was diluted in medium to 25 mM. […] Cell lines—Three different human CTLC cell lines were used. […] Both media also contained 100 U/mL penicillin and 0.1 mg/mL streptomycin. Penicillin, streptomycin, and RPMI (prepared with raw materials from Cellgro/MediaTech, Manassas, Va.) were provided by the Cell Culture Core lab of the USC/Norris Comprehensive Cancer Center. […] Cells were kept in a humidified incubator at 37° C. and a 5% CO2 atmosphere. FBS was obtained from Omega Scientific (Tarzana, Calif.) and from X&Y Cell Culture (Kansas City, Mo.). […] MTT assay—Methylthiazoletetrazolium (MTT) assays were performed as follows. Cells were seeded into 96-well plates in a volume of 50 μL per well at 3.0-5.0×10^5 cells/mL. An additional 50 μL of medium containing various concentrations of drug (or vehicle) was added and the cells were incubated for different lengths of time. This was followed by the addition of 10 μL thiazolyl-blue tetrazolium (i.e., MTT; Sigma Aldrich) from a stock solution of 5 mg/mL in phosphate-buffered saline (PBS). Cells were returned to the incubator for 4 hours. Thereafter, the reaction was stopped and the cells were lysed by the addition of 100 μL solubilization solution (10% sodium dodecyl sulfate in 0.01 M hydrochloric acid). The 96-well plate was left in the cell culture incubator over night for complete solubilization of the MTT crystals, and the optical density (OD) of each well was determined the next day in an ELISA plate reader at 560 nm. The background value (=OD of control wells containing medium without cells+MTT+solubilization solution) was subtracted from all measured values. In individual experiments, each treatment condition was set up in quadruplicate, and each experiment was repeated several times independently. […] Cell proliferation analysis—Cell proliferation was assessed by counting cells over time. Independent cell cultures were exposed to different concentrations of NEO212. At different times, aliquots of cells were removed, mixed with Trypan blue, and counted in a hemocytometer. Blue cells were considered dead, whereas unstained cells were counted as live cells. […] Fluorescence-activated cell sorting (FACS) analysis—Cells were seeded in 6-well tissue culture plates at 2×10^5 cells/mL, followed by drug treatment. After 72 hours, cells were collected, washed twice with PBS, transferred to a microcentrifuge tube, and suspended in 200 μL of 1× binding buffer solution, which was made fresh from 10x binding buffer (0.2 μm sterile-filtered 0.1 M HEPES, pH 7.4; 1.4 M NaCl; 25 mM CaCl2)). Then 1 μL of a 1 mg/mL 7-amino-actinomycin D (7-AAD) solution (Thermo Fisher Scientific, Waltham, Mass.) was added. After 20 minutes of incubation on ice, cell fluorescence was analyzed on a FACSAria Flow Cytometer (Becton Dickinson Biosciences Ltd., Franklin Lakes, N.J.).

[19] = test system: HUT102 cells; experiment: Cell proliferation by Trypan blue exclusion counting, HUT102; assay type: cell-based, human; conditions: HUT102, 1 μM
Source text: as §2

[20] = test system: HUT78 cells; experiment: FACS analysis of cell death with 7-AAD; assay type: cell-based, human; conditions: 72 hours
Source text: as §2

[21] = test system: normal astrocytes; experiment: MTT cytotoxicity assay, normal astrocytes; conditions: listed as TMZ-POH
Procedure: as §1

[22] = test system: USC-02 glioma cancer stem cells; experiment: MTT cytotoxicity assay, USC-02; assay type: cell-based; conditions: USC-02, MTT
Source text: as §4

[23] = test system: USC-04 glioma cancer stem cells; experiment: MTT cytotoxicity assay, USC-04; assay type: cell-based; conditions: USC-04, MTT
Source text: as §4

In the case of `C=C(C)C1CC=C(COC(=O)NC(=O)c2ncn3c(=O)n(C)nnc23)CC1` (centres unmarked) [NEO212], the “cytotoxicity in MTT assay” value [1] is reported as “demonstrated cytotoxicity”, the proliferation-inhibitory effect [2] is reported as “weaker activity” and the IC50 ([3]; 72 hours) is reported as about 130 µM. For the same molecule, the IC50 ([3]; 96 hours) was about 85 µM, the “cytotoxicity in colony forming assay” value ([4]; listed as POH-TMZ) was “substantially greater potency compared to POH alone” and the “cytotoxicity in colony forming assay” value ([4]; listed as TMZ-POH) was “demonstrated cytotoxicity”. The “lowest concentration triggering near-maximal CHOP induction” value ([5]; HUT78 cells) was 0.1 µM, the “expression levels of c-myc and cyclin D proteins” value ([5]; HUT102 and MyLa cells) was “declined” and the “lowest concentration triggering near-maximal CHOP induction” value ([5]; HUT102 cells) was 1.0 µM. The “concentration dependence of CHOP induction” value ([5]; MyLa cells, 96 hours) was “gradual increase all the way up to 100 μM”, the “induction of CHOP protein” value ([5]; all three CTCL cell lines) was “prominent induction of CHOP protein” and the “cytotoxicity in MTT assay” value [6] was “did not induce significant cytotoxicity”. The tolerability [7] was “very well tolerated”, the “cytotoxicity in MTT assay” value ([8]; confluent BEC) was “did not induce significant cytotoxicity” and the “cytotoxicity in MTT assay” value ([8]; subconfluent BEC, high concentrations) was “Mild to moderate cytotoxicity”. For the same molecule, the “concentration at which apoptosis markers emerged” value ([9]; HUT78 and HUT102 cells) was 0.1 to 1.0 µM, the “concentration required for apoptosis markers” value ([9]; MyLa cells) was 30 µM and the “induction of apoptosis markers” value ([9]; all three CTCL cell lines) was “appearance of cleaved PARP and cleaved (i.e., activated) caspases 3 and 4”. For the same molecule, the “concentration at which activation of CHOP was shown” value ([10]; as low as) was 60 µM, the “induction of ER stress (ERS)” value ([10]; western blot) was “induces ER stress” and the “cytotoxicity in colony forming assay” value ([11]; listed as POH-TMZ) was “substantially greater potency compared to POH alone”. The “cytotoxicity in colony forming assay” value ([11]; listed as TMZ-POH) was “demonstrated cytotoxicity”, the proliferation-inhibitory effect [12] was “strongest effect” and the IC50 ([13]; HUT102, 72 hours) was 9 µM. The IC50 ([13]; HUT102, 96 hours) was 3 µM, the “cytotoxicity in MTT assay” value [14] was “demonstrated cytotoxicity” and the tolerability [15] was “very well tolerated”. For the same molecule, the “cytotoxic effect on MF cells in MTT assay” value [16] was “pronounced cytotoxic effect”, the “cytotoxicity in MTT assay” value [17] was “substantially higher kill rates” and the reduction of viability ([18]; HUT78, 10 μM) was “over 50%”. The “concentration of earliest effect on viability” value ([18]; HUT78, 24 hours, as low as) was 3 µM, the IC50 ([18]; HUT78, 48 hours) was under 3 µM and the IC50 ([18]; HUT78, 72 hours) was about 4 µM. The “potency relative to that of TMZ” value ([18]; HUT78 cells) was “over 100 fold”, the IC50 ([18]; read-out: IC50 (50% decrease in viability), HUT78, 24 hours) was 8 µM and the proliferation-inhibitory effect [19] was “slightly less pronounced activity”. For the same molecule, the cell death ([20]; HUT78, 1 μM) was 33%, the cell death ([20]; HUT78, 30 μM) was 50% and the “cytotoxicity in MTT assay” value [21] was “not towards normal astrocytes; also recorded: did not induce significant cytotoxicity”. For the same molecule, the IC50 [22] was 60 µM and the IC50 [23] was 150 µM.

— patent US20220378780A1, “PHARMACEUTICAL COMPOSITIONS COMPRISING POH DERIVATIVES” (NeOnc Technologies, Inc., priority 2019, published 2022)
